Measurements: paper PMC12459184, “Design, synthesis, and bioevaluation of pyrazole-containing tubulin polymerisation inhibitors based on conformational constraint strategy” (Journal of Enzyme Inhibition and Medicinal Chemistry, 2025)
Read-outs that look alike come from different tables or passages of the source.

Key:
[1] = system: SGC-7901 cells; assay: MTT antiproliferative assay, SGC-7901; assay type: cell-based; details: Homo sapiens, read-out: IC50 (μM) ± SD SGC-7901
Description: The in vitro antiproliferative activities of all target compounds 4a−k, 5a−h, and 6a−h were assayed by MTT method using human gastric cancer cell line SGC-7901 and human breast cancer cell line MCF-7.
(§1) All cell lines tested in this study were purchased from the American Type Culture Collection (ATCC, Manassas, VA). SGC-7901 (human gastric adenocarcinoma), HCT-116 (human colon carcinoma), and A549 (human pulmonary carcinoma) cells were cultured in RPMI-1640 medium containing 10% foetal serum (FBS) and 1% penicillin-streptomycin solution (100×). MCF-7 (human breast carcinoma) cells were cultured in DMEM medium containing 10% foetal serum (FBS) and 1% penicillin-streptomycin solution (100×). PC-3 (human prostate carcinoma) cells were cultured in Ham’s F-12K medium containing 10% foetal serum (FBS) and 1% penicillin-streptomycin solution (100×). All cells were cultured at 37 °C in a humidified atmosphere containing 5% CO2.
(§2) Cells grown in logarithmic phase were harvested and seeded onto 96-well cell plates at a density of 4 ∼ 5 × 10^3 cells per well (various from cell type) and were cultured for 24 h. Different concentrations of compounds were added into the wells, and the cells were cultured for another 72 h. The medium was removed, then 20 μL of MTT (5 mg/mL in PBS) was added to each well and the cells were incubated for 4 h. 150 μL of DMSO was added to each well to dissolve the formazan, and the absorbance at 490 nm of each well was measured by a microplate reader. IC50 values were calculated by SPSS software.

[2] = system: HCT-116 cells; assay: MTT antiproliferative assay, HCT-116; assay type: cell-based; details: Homo sapiens, 72 h drug exposure, read-out: IC50 (μM) ± SD HCT-116
Description: as §1, §2

[3] = system: A549 cells; assay: MTT antiproliferative assay, A549; assay type: cell-based; details: Homo sapiens, 72 h drug exposure, read-out: IC50 (μM) ± SD A549
Description: as §1, §2

[4] = system: PC-3 cells; assay: MTT antiproliferative assay, PC-3; assay type: cell-based; details: Homo sapiens, 72 h drug exposure, read-out: IC50 (μM) ± SD PC-3
Description: as §1, §2

[5] = system: tubulin; assay: In vitro tubulin polymerisation assay; assay type: biochemical
Description: To investigate the effect of compounds 4k and 5a on microtubule system, their tubulin polymerisation inhibition activities were evaluated using in vitro tubulin polymerisation assay.
The BK001 kit used in this test was purchased from Cytoskeleton Inc. (Denver, CO, USA). […] Then the mixtures were transferred to 37 °C and tubulin assembly was monitored (excitation wavelength: 360 nm; emission wavelength: 420 nm) at 1 min intervals for 90 min by a microplate reader.

[6] = system: cyclin-dependent kinase 1 (CDK1); assay: Western blot assay, CDK1; assay type: cell-based, human; details: PC-3 cells, at the concentrations of 40 and 20 nM
Description: (§3) Additionally, western blot assay was employed to measure the expression level of cell cycle-related proteins cyclin-dependent kinase 1 (CDK1) and Cyclin B1.
(§4) PC-3 cells in logarithmic phase were harvested and seeded onto culture plates, and were cultured for 24 h. […] The proteins of PC-3 cells were extracted by RIPA buffer containing 1% PMSF (Beyotime Biotechnology, China). The protein concentration was measured by BCA Assay Kit (SEVEN Biotech, China). Equal amounts and concentration of protein were diluted in 5× loading buffer (Beyotime, China) and denatured by boiled for 5 min. Protein samples were separated on 12.5% SDS-PAGE gels (EpiZyme, China) and transferred to PVDF membranes (Millipore Corporation, Billerica, MA, USA). The membranes were blocked in QuickBlockTM Block Buffer (SEVEN Biotech, China) for 10 min at room temperature. Then the membranes were incubated with the primary antibodies overnight at 4 °C, including Cyclin B1 (1:2000, Proteintech, China), CDK1 (1:5000, Proteintech, China), BAX (1:5000, Proteintech, China), Bcl2 (1:1000, Proteintech, China), Caspase 9/p35/p10 (1:1000, Proteintech, China), and β-actin (1:20 000, Proteintech, China). […] The protein signals were detected by using chemiluminescent reagents kit (NCM Biotech, China) and visualised with ChemiDocImaging System (Tanon 5200, China). Protein expressions was quantified by using Fiji/ImageJ software.

[7] = system: Cyclin B1; assay: Western blot assay, Cyclin B1; assay type: cell-based, human; details: PC-3 cells, at the concentrations of 20 and 40 nM
Description: as §3, §4

[8] = system: Bcl-2; assay: Western blot assay, Bcl-2; assay type: cell-based, human; details: PC-3 cells
Description: The expression of cell apoptosis-related proteins (Bax, Bcl-2, and cleaved caspase-9) after treatment of 4k and 5a was also measured by western blot assay.
as §4

[9] = system: PC-3 cell line; assay: MTT cell viability after 24 h; assay type: cell-based; details: Homo sapiens, read-out: cell viability
Description: An MTT assay was made on PC-3 cell line to test the cell viability after treated with different concentrations of compounds 4k and 5a after 24 h which was the same period as immunofluorescence assay.

[10] = system: PC-3 cells; assay: Cell apoptosis analysis, Annexin V-FITC/PI flow cytometry; assay type: cell-based, human; details: 48 h
Description: To investigate the effect of 4k and 5a on cell apoptosis, flow cytometry was used to analyse the cell apoptosis of PC-3 cells. […] Early apoptosis cells could only be stained by Annexin V-FITC, while late apoptosis cells could be stained by both Annexin V-FITC and PI.
PC-3 cells in logarithmic phase were harvested and seeded onto 6-well cell plates at a density of 2.5 × 10^5 cells per well, and were cultured for 24 h. […] The cells were digested using trypsin and were harvested, washed twice with PBS, and resuspended in 500 μL binding buffer, followed by the addition of 100 μL of the cell suspension to 5 μL of Annexin V-FITC and 5 μL of PI. After stained for 15 min in a dark at room temperature, the samples were added 400 μL of binding buffer and detected by FACScan flow cytometry (BectoneDickinson, Franklin Lakes, NJ, USA).

[11] = system: PC-3 cells; assay: Wound healing assay; assay type: cell-based, human; details: 24 h, control group 48.7%
Description: To investigate the effect of 4k and 5a on cell migration, wound healing assay was used on PC-3 cells.
PC-3 cells in logarithmic phase were harvested and seeded onto 12-well cell plates at a density of 2.5 × 10^5 cells per well, and were cultured for 24 h. Scratches were made in confluent monolayers using 200 μL pipette tip, and the cells were washing twice with PBS to remove all the non-adherent cells. […] Images of wounds were taken at 0 h and 24 h and analysed by Fiji/ImageJ software.

COc1cc(C2=NCC(=O)Nc3cn(-c4ccccc4)nc32)cc(OC)c1OC [5a, 2-Phenyl-8–(3,4,5-trimethoxyphenyl)-2,6-dihydropyrazolo[4,3-e][1,4]diazepin-5(4H)-one]
IC50 ([1]; SGC-7901, 72 h): 0.018 ± 0.003 µM
IC50 [2]: 0.163 ± 0.038 µM
IC50 [3]: 0.063 ± 0.017 µM
IC50 [4]: 0.006 ± 0.002 µM
effect on tubulin polymerisation (fluorescence intensity) ([5]; 10 μM and 20 μM): inhibition of tubulin polymerisation
tubulin polymerisation inhibitory potency compared with colchicine (3 μM) ([5]; 20 μM): superior inhibitory potency compared to colchicine
level of CDK1 [6]: increase
level of Cyclin B1 [7]: increase
expression of Bcl-2 ([8]; western blot, 5, 20, 40 nM): significantly decreased
viability at 0.00051 µM ([9]; PC-3, 24 h): 76.6%
viability at 1.111 µM ([9]; PC-3, 24 h): 39.6%
percentage of apoptosis cells ([10]; PC-3, 100 nM, vehicle 18.2%): 26.6%
percentage of apoptosis cells ([10]; PC-3, 200 nM, vehicle 18.2%): 41.5%
recover percentage of scratches ([11]; PC-3, 10 nM): 32.3%
recover percentage of scratches ([11]; PC-3, 20 nM): 23.3%

COc1cc(C(=O)c2nn(-c3ccc(N)cc3)cc2N)cc(OC)c1OC [4k, (4-amino-1–(4-aminophenyl)-1H-pyrazol-3-yl)(3,4,5-trimethoxyphenyl)methanone]
IC50 ([1]; SGC-7901, 72 h drug exposure, MTT assay): 0.017 ± 0.002 µM
IC50 [2]: 0.01 ± 0.001 µM
IC50 [3]: 0.04 ± 0.012 µM
IC50 [4]: 0.015 ± 0.004 µM
effect on tubulin polymerisation (fluorescence intensity) ([5]; 5 μM and 10 μM): inhibition of tubulin polymerisation
tubulin polymerisation inhibitory potency compared with colchicine (3 μM) ([5]; 5 μM and 10 μM): higher potency than colchicine
level of CDK1 [6]: increase
level of Cyclin B1 [7]: increase
expression of Bcl-2 ([8]; western blot, 10, 20, 40 nM): significantly decreased
viability at 0.00051 µM ([9]; PC-3, MTT, 24 h, 0.51 nM): 91.6%
viability at 1.111 µM ([9]; PC-3, MTT, 24 h, 1111 nM): 41.6%
percentage of apoptosis cells ([10]; PC-3, 10 nM, vehicle 18.3%): 27.1%
percentage of apoptosis cells ([10]; PC-3, 25 nM, vehicle 18.3%): 34.1%
recover percentage of scratches ([11]; PC-3, 10 nM): 42.7%
recover percentage of scratches ([11]; PC-3, 20 nM): 20.2%
